Laboratory results from ChEMBL document CHEMBL1147749, “Aromatic sulfide inhibitors of histone deacetylase based on arylsulfinyl-2,4-hexadienoic acid hydroxyamides” (J Med Chem, 2006).

Key:
HCT-116 = test: Inhibition of human colorectal cancer HCT116 cell viability; format: functional, cell-based
MCF7 = test: Inhibition of human breast cancer MCF7 cell viability; format: functional, cell-based
SUD4 = test: Inhibition of human lymphoma SUD4 cell viability; format: functional, cell-based; conditions: SU-DHL-4
Histone deacetylase [1] = test: Inhibition of HDAC in rat liver homogenate; format: tissue-based
Histone deacetylase [2] = test: Inhibition of HDAC in human leukemic CEM cells; format: cell-based; conditions: ccrf-cem
CCRF-CEM = test: Inhibition of human leukemic CEM cell viability; format: functional, cell-based

Row | Structure (SMILES) | IC50 (Histone deacetylase [1]) [nM] | IC50 (Histone deacetylase [2]) [nM] | also measured
1 | O=C(CCCCC[S+]([O-])c1ccc(Cl)cc1)NO (centres undefined) |  |  | IC50 (HCT-116): 3900 nM; IC50 (MCF7): 6100 nM; IC50 (SUD4): 7500 nM
2 | O=C(/C=C/C=C/CSc1ccc2ccccc2c1)NO | 700 | 9400 | IC50 (CCRF-CEM): 1700 nM
3 | O=C(/C=C/C=C/CSc1ccc(Cl)cc1)NO | 310 | 1600 | IC50 (CCRF-CEM): 1600 nM
4 | O=C(CCCCCSc1ccc(Cl)cc1)NO | 260 | > 25000 | 
5 | COc1ccc([S+]([O-])C/C=C/C=C/C(=O)NO)cc1 (centres undefined) | 410 | 5400 | IC50 (CCRF-CEM): 9600 nM
6 | O=C(CCCCCC[S+]([O-])c1ccc(Cl)cc1)NO (centres undefined) | 380 |  | 
7 | O=C(CCCCC[S+]([O-])c1ccccc1)NO (centres undefined) | 60 | 7700 | 
8 | CN(C)c1ccc([S+]([O-])CCCCCC(=O)NO)cc1 (centres undefined) | 180 |  | 
9 | O=C(CCCCCSc1ccccc1)NO | 120 |  | 
10 | O=C(/C=C/C=C/C[S+]([O-])c1ccc(Cl)cc1)NO (centres undefined) | 400 | 1200 | 
11 | O=C(CCCCCS(=O)(=O)c1ccccc1)NO | 40 |  | 
12 | O=C(/C=C/C=C/C[S+]([O-])c1ccccc1)NO (centres undefined) | 240 | > 25000 | 
13 | O=C(CCCCCSc1ccc(NS(=O)(=O)c2ccc(Cl)cc2)cc1)NO | 110 |  | 
14 | CC(/C=C/C(=O)NO)=C\C(C)Sc1ccc(N(C)C)cc1 (centres undefined) | 340 | 5300 | IC50 (CCRF-CEM): 7500 nM
15 | CN(C)c1ccc2sc(/C=C/C=C/C(=O)NO)cc2c1 | > 25000 |  | 
16 | O=C(/C=C/C=C/CSc1ccccc1)NO | 390 | > 25000 | 
17 | CN(C)c1ccc(Sc2cccc(/C=C/C(=O)NO)c2)cc1 | 160 | 8600 | IC50 (CCRF-CEM): 3400 nM
